Test results taken from patent US6589325B1, “Phthalocyanine compounds, water-base ink compositions and colored products” (Nippon Kayaku Kabushiki Kaisha, priority 1999, dated 2003).

Experiments:
[1] = water fastness of recorded image, stirred in water; format: physicochemical; settings: for water fastness (summary in words): plain paper and special paper; for Water fastness Judgment / Water fastness (ΔE): stirred in water 2 min; for Water fastness Judgment: JIS fading gray scale; for Water fastness (ΔE): color difference before/after
Experimental: (§1) The solution of the composition as described below was prepared and filtered through a 0.45 μm membrane filter to prepare the water-based ink compositions for ink-jetting. Ion-exchanged water was used. The water-based ink compositions were prepared with water and ammonium hydroxide to have a pH of 8-10 and a total amount of 100 parts.
(§2) By using an ink-jet printer (Trade name: PICTY80L, made by NEC KK), ink-jet recordings were done on three kinds of recording paper: a plain paper (Printer Paper A4, TLB5A4S, made by Canon KK), a special paper A (Color BJ Paper LC101, made by Canon KK), a special paper B (Color Image Jet Coat Paper STX73A4, made by Sharp KK). The test results on hue, light fastness, water fastness and color rendering property in recorded images by the water-based ink compositions (containing the compounds of Example 1 to 2) of the present invention are shown in Table 2.
(§3) The ink compositions for two comparative examples were prepared so as to coincide in optical density with the black ink of the present invention as in the above (A), but the respective ink compositions contained C.I. Direct Black 19 (represented by following Formula), an azo colorant generally applied for an ink-jet black colorant (Comparative example 1) and the compound (represented by following Formula) described in JP Laid-Open No. 140270/1990 (Comparative example 2) respectively in place of the colorant. The test results on hue, light fastness, water fastness and color rendering property in recorded images pictured by the ink compositions for the comparative examples also are shown in Table 2. [drawing 4]
The recorded material was set in a beaker filled with water, stirred for 2 min and air-dried. The change in the recorded image was determined based on the JIS fading gray scale. Color difference (ΔE) between before and after the treatment also was determined by the above colorimetry system.

[2] = light fastness of recorded image, carbon arc fade meter; format: physicochemical; settings: for light fastness (summary in words): depending on the kind of recording material; for Light fastness Judgment / Light fastness (ΔE): carbon arc 20 hours; for Light fastness Judgment: blue scale JIS L-0841; for Light fastness (ΔE): color difference before/after
Experimental: as §1, §2, §3
A carbon arc fade meter (by Suga Testing Machine KK) was used to irradiate carbon arc on the recorded image for 20 hours. Grade was determined based on blue scale grade as prescribed in JIS L-0841. Color difference (ΔE) between before and after the irradiation also was determined by the above colorimetry system.

SMILES | water fastness (summary in words) [1] | Water fastness Judgment ([1]; plain paper) | Water fastness (ΔE) ([1]; plain paper) | Water fastness Judgment ([1]; special paper A) | Water fastness (ΔE) ([1]; special paper A) | Water fastness Judgment ([1]; special paper B) | Water fastness (ΔE) ([1]; special paper B) | light fastness (summary in words) [2] | Light fastness Judgment ([2]; plain paper) | Light fastness (ΔE) ([2]; plain paper) | Light fastness Judgment ([2]; special paper A) | Light fastness (ΔE) ([2]; special paper A) | Light fastness Judgment ([2]; special paper B) | Light fastness (ΔE) ([2]; special paper B)
Nc1ccc(N=Nc2ccc(N=Nc3c(S(=O)(=O)[O-])cc4cc(S(=O)(=O)[O-])c(N=Nc5ccc(N=Nc6ccc(N)cc6N)cc5)c(O)c4c3N)cc2)c(N)c1.[Na+].[Na+] [Comparative Example 1, C.I. Direct Black 19] | inferior | Grade 2 | (11.5) | Grade 4 | (2.9) | Grade 4 | (2.8) | unstable quality | Grade 4 | (2.0) | Grade 3-4 | (4.1) | Grade 4 | (1.5)
Nc1ccc2cc(S(=O)(=O)O)c(N=Nc3ccc(N=Nc4cc(C(=O)O)cc(C(=O)O)c4)c4ccccc34)c(O)c2c1 [Comparative Example 2] | inferior | Grade 3 | (6.2) | Grade 5 | (1.0) | Grade 2 | (10.3) | unstable quality | Grade 4 | (1.3) | Grade 3 | (8.0) | Grade 4 | (2.8)
